This note sets out measurements from US12649737B2, “Compounds and uses thereof” (Foghorn Therapeutics Inc., priority 2020, dated 2026).

As usually defined, the pIC50 is the negative decadic logarithm of the IC50, by convention in mol/L.

pIC50: −log10 of the molar value. Some results are limits rather than exact numbers.

For one assay, the target named is T1, BRM (Homo sapiens, UniProt P51531).
T1 construct: made in house; host or cells: High Five insect cells
Kind of assay: ATPase catalytic activity assay of BRM (ADP-Glo). It is filed as biochemical. As to conditions: 30 nM BRM, 400 μM ATP, 20 nM salmon sperm DNA, 1 hour at room temperature. As for the experimental part: (§1) Example 38. Assay for ATPase Catalytic Activity of BRM and BRG-1
(§2) The ADP-Glo™ kinase assay is performed in two steps once the reaction is complete.

The next assay has as its target T2, BRG-1 (Homo sapiens, UniProt P51532).
T2 construct: made in house; host or cells: High Five insect cells
Kind of assay: ATPase catalytic activity assay of BRG-1 (ADP-Glo). As to conditions: 30 nM BRG-1, 400 μM ATP, 20 nM salmon sperm DNA, 1 hour at room temperature; read-out: BRG1 ATPase: IC50. It is filed as biochemical. As for the experimental part:
as §1, §2

T1 sequence (P51531 whole entry): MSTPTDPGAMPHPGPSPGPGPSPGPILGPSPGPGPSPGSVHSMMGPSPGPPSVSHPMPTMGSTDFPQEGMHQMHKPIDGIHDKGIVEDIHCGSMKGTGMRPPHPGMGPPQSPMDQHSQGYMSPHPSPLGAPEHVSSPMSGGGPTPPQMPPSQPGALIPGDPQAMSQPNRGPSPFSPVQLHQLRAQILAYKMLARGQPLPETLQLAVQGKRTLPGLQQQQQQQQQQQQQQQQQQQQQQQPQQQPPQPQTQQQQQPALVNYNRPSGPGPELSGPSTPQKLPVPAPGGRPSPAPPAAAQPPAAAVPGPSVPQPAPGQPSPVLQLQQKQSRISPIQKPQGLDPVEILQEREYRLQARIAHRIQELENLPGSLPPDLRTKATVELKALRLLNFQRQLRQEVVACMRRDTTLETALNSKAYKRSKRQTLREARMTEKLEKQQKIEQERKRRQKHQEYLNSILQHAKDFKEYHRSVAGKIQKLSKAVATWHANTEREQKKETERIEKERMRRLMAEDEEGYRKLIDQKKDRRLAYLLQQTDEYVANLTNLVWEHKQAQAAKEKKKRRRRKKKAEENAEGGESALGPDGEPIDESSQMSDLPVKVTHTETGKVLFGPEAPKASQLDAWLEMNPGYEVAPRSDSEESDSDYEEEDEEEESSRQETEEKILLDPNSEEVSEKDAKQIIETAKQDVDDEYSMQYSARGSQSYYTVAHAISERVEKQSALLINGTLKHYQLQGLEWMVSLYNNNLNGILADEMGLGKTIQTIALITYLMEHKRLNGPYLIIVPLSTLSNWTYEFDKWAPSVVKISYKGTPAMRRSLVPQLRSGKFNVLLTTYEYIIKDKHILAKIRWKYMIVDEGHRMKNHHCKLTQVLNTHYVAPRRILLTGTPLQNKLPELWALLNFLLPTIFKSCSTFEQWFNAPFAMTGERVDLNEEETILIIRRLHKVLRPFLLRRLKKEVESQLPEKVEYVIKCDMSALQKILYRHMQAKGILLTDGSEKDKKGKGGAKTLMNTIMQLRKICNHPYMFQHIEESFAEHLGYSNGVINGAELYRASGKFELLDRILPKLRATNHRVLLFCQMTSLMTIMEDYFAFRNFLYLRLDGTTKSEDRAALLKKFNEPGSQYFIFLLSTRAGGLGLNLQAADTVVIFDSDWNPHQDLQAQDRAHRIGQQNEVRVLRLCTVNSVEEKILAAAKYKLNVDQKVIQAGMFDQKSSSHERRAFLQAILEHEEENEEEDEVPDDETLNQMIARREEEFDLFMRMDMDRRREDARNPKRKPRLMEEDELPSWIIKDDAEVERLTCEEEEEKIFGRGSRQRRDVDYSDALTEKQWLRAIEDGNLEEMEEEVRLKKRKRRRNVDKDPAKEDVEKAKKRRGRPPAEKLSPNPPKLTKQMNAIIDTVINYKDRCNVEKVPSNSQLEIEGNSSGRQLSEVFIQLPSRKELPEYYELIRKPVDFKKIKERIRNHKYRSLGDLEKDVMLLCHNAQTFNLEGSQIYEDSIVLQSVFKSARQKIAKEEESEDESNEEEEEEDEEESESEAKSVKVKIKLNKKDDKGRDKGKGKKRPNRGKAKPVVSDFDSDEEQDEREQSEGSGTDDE
T2 sequence (P51532 whole entry): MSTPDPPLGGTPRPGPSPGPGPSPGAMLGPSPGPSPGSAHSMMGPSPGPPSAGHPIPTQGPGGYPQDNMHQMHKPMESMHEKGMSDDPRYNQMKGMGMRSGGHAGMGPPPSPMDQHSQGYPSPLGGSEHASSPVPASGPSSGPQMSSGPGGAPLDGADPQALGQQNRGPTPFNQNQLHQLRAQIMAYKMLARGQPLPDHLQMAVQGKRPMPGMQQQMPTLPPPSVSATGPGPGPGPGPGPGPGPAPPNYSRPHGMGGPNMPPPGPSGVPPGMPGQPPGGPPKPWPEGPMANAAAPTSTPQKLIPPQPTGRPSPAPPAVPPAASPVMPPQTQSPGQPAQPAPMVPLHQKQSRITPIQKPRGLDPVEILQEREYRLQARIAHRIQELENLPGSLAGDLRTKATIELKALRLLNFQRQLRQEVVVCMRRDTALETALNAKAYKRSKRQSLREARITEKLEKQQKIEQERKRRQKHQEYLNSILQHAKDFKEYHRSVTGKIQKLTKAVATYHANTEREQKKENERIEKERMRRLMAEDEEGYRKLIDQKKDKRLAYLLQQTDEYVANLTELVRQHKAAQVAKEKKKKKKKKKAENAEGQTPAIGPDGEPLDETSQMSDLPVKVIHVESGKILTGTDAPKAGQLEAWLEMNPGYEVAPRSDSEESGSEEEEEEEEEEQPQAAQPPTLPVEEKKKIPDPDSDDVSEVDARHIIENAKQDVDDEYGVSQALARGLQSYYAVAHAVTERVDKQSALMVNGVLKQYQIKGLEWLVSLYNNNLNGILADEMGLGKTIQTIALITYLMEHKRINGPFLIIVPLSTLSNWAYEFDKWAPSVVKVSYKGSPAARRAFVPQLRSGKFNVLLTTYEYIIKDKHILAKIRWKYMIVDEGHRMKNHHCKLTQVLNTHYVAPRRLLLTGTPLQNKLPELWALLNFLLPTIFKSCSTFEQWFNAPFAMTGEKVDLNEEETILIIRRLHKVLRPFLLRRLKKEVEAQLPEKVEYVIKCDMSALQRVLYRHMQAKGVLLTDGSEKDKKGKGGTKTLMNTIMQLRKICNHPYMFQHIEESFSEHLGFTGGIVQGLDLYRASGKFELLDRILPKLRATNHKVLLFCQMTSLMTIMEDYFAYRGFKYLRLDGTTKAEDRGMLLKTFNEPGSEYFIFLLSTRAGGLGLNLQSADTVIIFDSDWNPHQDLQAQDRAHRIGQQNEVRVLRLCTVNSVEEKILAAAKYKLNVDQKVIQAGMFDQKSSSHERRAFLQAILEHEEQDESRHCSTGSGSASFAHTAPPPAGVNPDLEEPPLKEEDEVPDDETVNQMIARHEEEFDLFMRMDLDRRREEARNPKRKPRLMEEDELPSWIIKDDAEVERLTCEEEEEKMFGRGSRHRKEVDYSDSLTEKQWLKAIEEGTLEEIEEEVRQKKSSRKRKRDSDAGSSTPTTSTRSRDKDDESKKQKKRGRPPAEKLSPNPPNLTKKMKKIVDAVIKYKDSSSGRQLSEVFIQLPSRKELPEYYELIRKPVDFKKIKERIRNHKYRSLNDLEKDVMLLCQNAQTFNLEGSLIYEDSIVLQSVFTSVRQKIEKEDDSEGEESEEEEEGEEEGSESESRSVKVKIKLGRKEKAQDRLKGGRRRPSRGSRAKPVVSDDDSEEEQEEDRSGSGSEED

Turning to `COCCOc1ccc(-c2ccc3nc(CNC(=O)c4ccn(C(C)(C)C)c4)[nH]c3c2)cc1` [Compound 59], the pIC50 against BRM and at BRG-1 was 6.00 to 7.00 in each case.
With `C[C@@H]1CN(c2cccc(-c3ccc4nc(CNC(=O)c5ccn(C6(C#N)CC6)c5)[nH]c4n3)c2)C[C@H](C)O1` [Compound 18], the pIC50 on BRM and on BRG-1 was 6.00 to 7.00 each time.
Consider `CS(=O)(=O)n1ccc(C(=O)NCc2cc3nc(-c4cccc(N5CCC5)c4)ccc3cn2)c1` [Compound 64, N-[[2-[3-(azetidin-1-yl)phenyl]-1,6-naphthyridin-7-yl]methyl]-1-methylsulfonyl-pyrrole-3-carboxamide], for which the pIC50 was 7.00 to 8.00 against BRM and 6.00 to 7.00 at BRG-1.
The like results for `COc1ccc(-c2ccc3nc(CNC(=O)c4ccn(C(C)(C)C)c4)[nH]c3c2)cc1Cl` [Compound 35] were, in that order, 7.00 to 8.00 and 6.00 to 7.00.
For `COc1ccc(-c2ccc3nc(CNC(=O)c4ccn(C(C)(C)C)c4)[nH]c3n2)cc1` [Compound 6], the pIC50 against BRM and at BRG-1 was 6.00 to 7.00 throughout.
For the molecule `COc1ncc(-c2ccc3nc(CNC(=O)c4ccn(C(C)(C)C)c4)[nH]c3c2)cc1Cl` [Compound 60], the values for the pIC50 against BRM and at BRG-1 were 7.00 to 8.00 and 6.00 to 7.00, respectively.
For `CS(=O)(=O)n1ccc(C(=O)NCc2cc3nc(-c4cccc(OC5CC5)c4)ccc3cn2)c1` [Compound 70], the negative logarithm of the IC50 (pIC50) at BRM and on BRG-1 was 6.00 to 7.00 each time.
Consider `Cc1ccc2ccc(-c3ccc4nc(CNC(=O)c5ccn(C(C)(C)C)c5)[nH]c4c3)cc2n1` [Compound 52], for which the pIC50 against BRM and on BRG-1 was 7.00 to 8.00 in each case.
In the case of `CS(=O)(=O)n1ccc(C(=O)NCc2cc3nc(-c4ccc5c(c4)OCC5)ccc3cn2)c1` [Compound 68], the pIC50 on BRM and on BRG-1 was 6.00 to 7.00 throughout.
`CS(=O)(=O)n1ccc(C(=O)NCc2nc3ccc(-c4cccc(-c5ccncc5)c4)nc3[nH]2)c1` [Compound 2]: the pIC50 on BRM and on BRG-1 was 7.00 to 8.00 each time.
On to `CS(=O)(=O)n1ccc(C(=O)NCc2cc3nc(-c4cccc(C(F)F)c4)ccc3cn2)c1` [Compound 65], for which the pIC50 on BRM and on BRG-1 was 6.00 to 7.00 each time.
As for `COC[C@H](NC(=O)c1ccn(S(C)(=O)=O)c1)c1cc2nc(-c3cccc(N4C[C@@H](C)O[C@@H](C)C4)n3)ccc2cn1` [Compound 82], the negative-log IC50 (pIC50) at BRM was 7.00 to 8.00; on BRG-1 it was 6.00 to 7.00.
In the case of `COc1cccc(-c2ccc3cnc(CNC(=O)c4ccn(S(C)(=O)=O)c4)cc3n2)c1` [Compound 62], the negative logarithm of the IC50 (pIC50) against BRM and on BRG-1 was 6.00 to 7.00 each time.
For `C[C@@H]1CN(c2cccc(-c3ccc4cnc(CNC(=O)c5ccn(C(C)(C)C)c5)cc4n3)n2)C[C@H](C)O1` [Compound 77], the pIC50 on BRM and on BRG-1 was 7.00 to 8.00 each time.
As for `C[C@@H]1CN(c2cccc(-c3ccc4cnc(CNC(=O)c5ccn(C(C)(C)C#N)n5)cc4n3)n2)C[C@H](C)O1` [Compound 79], the negative logarithm of the IC50 (pIC50) against BRM and at BRG-1 was 7.00 to 8.00 each time.
For the molecule `Cn1cc2ccc(-c3ccc4nc(CNC(=O)c5ccn(C(C)(C)C)c5)[nH]c4c3)cc2n1` [Compound 33], the negative logarithm of the IC50 (pIC50) against BRM and at BRG-1 was 7.00 to 8.00 each time.
In the case of `Cn1ccc2ccc(-c3ccc4nc(CNC(=O)c5ccn(C6(C)COC6)c5)[nH]c4c3)cc2c1=O` [Compound 20, N-((6-(2-methyl-1-oxo-1,2-dihydroisoquinolin-7-yl)-1H-benzo[d]imidazol-2-yl)methyl)-1-(3-methyloxetan-3-yl)-1H-pyrrole-3-carboxamide], the negative logarithm of the IC50 (pIC50) against BRM and at BRG-1 was 6.00 to 7.00 throughout.
For the molecule `CC(C)(C)n1ccc(C(=O)NCc2nc3ccc(-c4ccc5c(c4)OCO5)cc3[nH]2)c1` [Compound 58], the negative-log IC50 (pIC50) on BRM is 7.00 to 8.00; on BRG-1, 6.00 to 7.00.
Taken in the same sequence, the figures for `C[C@H](NC(=O)c1ccn(S(C)(=O)=O)c1)c1nc2ccc(-c3cccc(-c4ccncc4)c3)nc2[nH]1` [Compound 4] were 7.00 to 8.00 and 7.00 to 8.00.
For the molecule `CC(C)(C)n1ccc(C(=O)NCc2nc3ccc(-c4cnn5ccccc45)cc3[nH]2)c1` [Compound 47], the pIC50 on BRM and on BRG-1 was 7.00 to 8.00 each time.
On to `CS(=O)(=O)n1ccc(C(=O)NCc2nc3ccc(N4CCCC(C5CCC5)C4)nc3[nH]2)c1` (centres unmarked) [Compound 23], for which the pIC50 on BRM and at BRG-1 was 6.00 to 7.00 each time.
Consider `Cc1nn(C)c2ccc(-c3ccc4nc(CNC(=O)c5ccn(C(C)(C)C)c5)[nH]c4c3)cc12` [Compound 49], for which the pIC50 against BRM and at BRG-1 was 7.00 to 8.00 each time.
For `Nc1ccc(C(=O)NCc2nc3ccc(-c4cccc(-c5ccncc5)c4)nc3[nH]2)cc1` [Compound 1, 4-amino-N-((5-(3-(pyridin-4-yl)phenyl)-3H-imidazo[4,5-b]pyridin-2-yl)methyl)benzamide], the negative-log IC50 (pIC50) against BRM and at BRG-1 was 6.00 to 7.00 each time.
For `CS(=O)(=O)n1ccc(C(=O)NCc2nc3ccc(-c4cccc(N5CCC5)c4)cc3[nH]2)c1` [Compound 7], the pIC50 at BRM and at BRG-1 was 6.00 to 7.00 throughout.
As to `CS(=O)(=O)n1ccc(C(=O)NCc2nc3ccc(-c4ccc(N5CCC5)cc4)nc3[nH]2)c1` [Compound 9], the pIC50 against BRM and at BRG-1 was 7.00 to 8.00 throughout.
Regarding `CC(C)(C)n1ccc(C(=O)NCc2nc3ccc(-c4ccc5scnc5c4)cc3[nH]2)c1` [Compound 42], the pIC50 against BRM and at BRG-1 was 7.00 to 8.00 each time.
Consider `CS(=O)(=O)n1ccc(C(=O)NCc2nc3ccc(-c4ccccc4)cc3[nH]2)c1` [Compound 27], for which the pIC50 against BRM and at BRG-1 was 6.00 to 7.00 each time.
Regarding `C[C@@H]1CN(c2ccc(-c3ccc4nc(CNC(=O)c5ccn(S(C)(=O)=O)c5)[nH]c4n3)cc2)C[C@H](C)O1` [Compound 14], the negative logarithm of the IC50 (pIC50) at BRM and at BRG-1 was 6.00 to 7.00 in each case.
As for `CS(=O)(=O)n1ccc(C(=O)NCc2cc3nc(-c4cccc(C#N)c4)ccc3cn2)c1` [Compound 66, N-((2-(3-cyanophenyl)-1,6-naphthyridin-7-yl)methyl)-1-(methylsulfonyl)-1H-pyrrole-3-carboxamide], the pIC50 against BRM and on BRG-1 was less than 6.00 in each case.
On to `CC(C)S(=O)(=O)n1ccc(C(=O)NCc2nc3ccc(-c4cccc(-c5ccncc5)c4)nc3[nH]2)c1` [Compound 3], for which the negative logarithm of the IC50 (pIC50) against BRM was 7.00 to 8.00; at BRG-1, 6.00 to 7.00.
Consider `Cn1ncc2ccc(-c3ccc4nc(CNC(=O)c5ccn(C(C)(C)C)c5)[nH]c4c3)cc21` [Compound 36], for which the pIC50 on BRM and on BRG-1 was 6.00 to 7.00 throughout.
For the molecule `CC(C)(C)n1ccc(C(=O)NCc2nc3ccc(-c4ccc5cnccc5c4)cc3[nH]2)c1` [Compound 41], the negative-log IC50 (pIC50) on BRM and on BRG-1 was 7.00 to 8.00 in each case.
For the molecule `CS(=O)(=O)n1ccc(C(=O)NCc2cc3nc(-c4ccc5c(c4)CCO5)ccc3cn2)c1` [Compound 67], the pIC50 against BRM and on BRG-1 was 6.00 to 7.00 in each case.
`CS(=O)(=O)n1ccc(C(=O)NCc2nc3ccc(-c4cccc(OC(F)(F)F)c4)nc3[nH]2)c1` [Compound 29]: the pIC50 at BRM and on BRG-1 was 6.00 to 7.00 throughout.
For the molecule `COC(=O)N1CCC[C@@H](c2ccc3nc(CNC(=O)c4ccn(S(C)(=O)=O)c4)[nH]c3c2)C1` [Compound 21, (S)-methyl 3-(2-((1-(methylsulfonyl)-1H-pyrrole-3-carboxamido)methyl)-1H-benzo[d]imidazol-6-yl)piperidine-1-carboxylate], the negative logarithm of the IC50 (pIC50) against BRM and at BRG-1 was 6.00 to 7.00 each time.
In the case of `C[C@@H]1CN(c2cccc(-c3ccc4cnc(CNC(=O)c5ccn(S(C)(=O)=O)c5)cc4n3)n2)C[C@H](C)O1` [Compound 76, N-((2-(6-(cis-2,6-dimethylmorpholino)pyridin-2-yl)-1,6-naphthyridin-7-yl)methyl)-1-(methylsulfonyl)-1H-pyrrole-3-carboxamide], the negative logarithm of the IC50 (pIC50) was more than 8.00 at BRM and 7.00 to 8.00 at BRG-1.
The like results for `C[C@@H]1CN(c2cccc(-c3ccc4nc(CNC(=O)c5ccn(S(C)(=O)=O)c5)[nH]c4c3)c2)C[C@H](C)O1` [Compound 11] were, in that order, 7.00 to 8.00 and 7.00 to 8.00.
With `C[C@@H]1CN(c2cccc(-c3ccc4nc(CNC(=O)c5ccn(S(C)(=O)=O)c5)[nH]c4n3)c2)C[C@H](C)O1` [Compound 13], the negative-log IC50 (pIC50) against BRM and on BRG-1 was 7.00 to 8.00 each time.
Turning to `CC(C)(C)n1ccc(C(=O)NCc2nc3ccc(-c4cncc5ccccc45)cc3[nH]2)c1` [Compound 38], the negative-log IC50 (pIC50) against BRM and at BRG-1 was 6.00 to 7.00 throughout.
For the molecule `Cn1ncc2c(-c3ccc4nc(CNC(=O)c5ccn(C(C)(C)C)c5)[nH]c4c3)cccc21` [Compound 48], the negative-log IC50 (pIC50) at BRM and on BRG-1 was 7.00 to 8.00 in each case.
For `CC(C)(C)n1ccc(C(=O)NCc2nc3ccc(-c4cccc(C#N)c4)cc3[nH]2)c1` [Compound 39], the pIC50 at BRM and on BRG-1 was 6.00 to 7.00 each time.
Take `CS(=O)(=O)n1ccc(C(=O)NCc2cc3nc(-c4ccc(N5CCC5)cc4)ccc3cn2)c1` [Compound 63]: the pIC50 against BRM and on BRG-1 was 6.00 to 7.00 each time.
As to `CC(C)S(=O)(=O)n1ccc(C(=O)NCc2nc3ccc(-c4ccc5ccn(C)c(=O)c5c4)cc3[nH]2)c1` [Compound 24], the pIC50 on BRM and at BRG-1 was 6.00 to 7.00 throughout.
In the case of `COC(=O)N1CCC[C@H](c2ccc3nc(CNC(=O)c4ccn(S(C)(=O)=O)c4)[nH]c3n2)C1` [Compound 26], the pIC50 was 6.00 to 7.00 against BRM and less than 6.00 on BRG-1.
For `CC(C)(C)OCc1cccc(-c2ccc3nc(CNC(=O)c4ccn(C(C)(C)C)c4)[nH]c3c2)c1` [Compound 46], the pIC50 is 7.00 to 8.00 against BRM and 6.00 to 7.00 on BRG-1.
The like results for `CC(C)(C)n1ccc(C(=O)NCc2nc3ccc(-c4ccc5c(c4)CCO5)cc3[nH]2)c1` [Compound 40] were, in that order, 6.00 to 7.00 and 6.00 to 7.00.
